Data published in patent US9513288B2, “Isoform-selective inhibitors and activators of PDE3 cyclic nucleotide phosphodiesterases” (The United States of America, as represented by the …, priority 2001, dated 2016).

Assays:
PDE3A2 = assay: Phosphorylation and 14-3-3 binding of FLAG-tagged PDE3A2 in transfected HEK293 cells; format: cell-based, human
Procedure: FIGS. 8A-8C Illustrate phosphorylation of PDE3A1 and PDE3A2 in response to PKA and PKC activation. HEK293 cells were transfected with FLAG-tagged PDE3A2 and PDE3A1. (A) Prior to lysis and immunoprecipitation with anti-FLAG antibodies, cells were treated with 1 µM isoproterenol for 90 sec or 10 ng/ml PMA for 15 min. (B) The experiment was carried out in cells incubated in the absence and presence of 100 μM IBMX before treatment with 1 µM isoproterenol for 90 sec. (C) FLAG-tagged PDE3A2 and PDE3A1, affinity-purified from transfected cells using anti-FLAG antibodies, were incubated in the absence or presence of 10 or 100 nM PKA and 200 μM ATP for 20 min at 30° C. Phosphorylation was analyzed by Western blotting with phosphospecific antibodies as indicated.
Furthermore, when affinity-purified FLAG-tagged PDE3A and PDE3A2 were phosphorylated in vitro by PKA, PDE3A2 was phosphorylated more robustly than PDE3A1 at both S312 and S428 (for both isoforms, S312 was phosphorylated more robustly than S428) […].
Activation of PKC by PMA in transfected HEK293 cells results in selective phosphorylation of PDE3A2 at S428: We compared the effects of PKC activation by PMA on the phosphorylation of FLAG-tagged PDE3A1 and PDE3A2 in transfected HEK293 cells.
Illustrative immunoprecipitation and immunoblotting: Endogenous or recombinant human PDE3A, its fragments or mutants, endogenous 14-3-3 or GST-14-3-3 proteins were immunoprecipitated by incubation overnight at 4° C. with anti-FLAG(M2)-coupled agarose beads or glutathione sepharose beads. Beads were centrifuged (5,000×g, 1 min) and washed four times with 1 ml buffer containing 20 mM MOPS pH 7.2, 15 mM MgCl2, 0.5% NP40 and 150 mM NaCl. Proteins were subjected to SDS-PAGE (8% polyacrylamide) and electrophoretic transfer to nitrocellulose membranes. Membranes were blocked using 5% nonfat milk in Tris-buffered saline (50 mM Tris pH 7.5, 150 mM NaCl, 0.1% Tween-20) for 1 h at room temperature and incubated with primary and HRP-conjugated secondary antibodies prepared in 5% (w/v) bovine serum albumin. Protein bands were visualized using an enhanced chemiluminescence detection system.
Treatment of cells with pharmacologic agents: HEK293 cells expressing the human PDE3A constructs were incubated at 37° C. in serum-free medium containing isoproterenol for 90 sec or PMA for 15 min. At the end of the incubation period, cells were solubilized in lysis buffer containing 20 mM MOPS pH 7.2, 15 mM MgCl2, 0.5% NP40, 150 mM NaCl, 5 mM EDTA, protease inhibitor cocktail and phosphatase inhibitor cocktail 3. Cellular debris was removed by centrifugation (1,000×g; 5 min), and cleared supernatants were used in the experiments.

PDE3A1 = assay: Gel-filtration chromatography and two-dimensional analysis of proteins co-immunoprecipitated with PDE3A1 from transfected HEK293 cells; format: cell-based, human; conditions: 1 μM isoproterenol 90 sec
Procedure: FIGS. 5A-5B Illustrate two-dimensional analysis of HEK293 cell proteins co-immunoprecipitated with PDE3A, wherein FLAG-tagged PDE3A1- and PDE3A2-transfected HEK293 cells were treated with 1 μM isoproterenol for 90 sec or 10 ng/ml PMA for 15 min, respectively; untransfected, untreated cells served as controls. PDE3A1 and PDE3A2 were immunoprecipitated with anti-FLAG antibody. PDE3A isoforms and co-immunoprecipitated proteins were eluted with 250 μg/ml of 3×FLAG peptide and submitted to isoelectric focusing followed by SDS-PAGE. Proteins were visualized by silver staining, and spots were quantified and analyzed for inter-gel comparison using PDquest 8.1 software. Experiments were carried out in triplicate, such that (A) Images from one experiment are shown. […]
PKA and PKC modulate the catalytic activity of PDE3A and PDE3A2 through distinct molecular mechanisms: In view of the reported effects of PKA and PKC on PDE3A activity^3-6, we examined the effects of phosphorylation at S312 and S428 on the cAMP-hydrolytic activity of PDE3A isoforms in transfected HEK293 cells. […] To determine whether similar consequences of phosphorylation occur in the case of PDE3A isoforms, protein extracts from transfected HEK293 cells, untreated or exposed to either isoproterenol or PMA, were analyzed by gel-filtration chromatography, measurement of catalytic activity and Western blotting. […]

[1] = isoproterenol 90 sec, PMA 10 ng/ml 15 min, dibutyryl cAMP 1 mM 1 hour, phosphospecific antibodies

CC(C)NCC(O)c1ccc(O)c(O)c1 (centres unmarked) [isoproterenol]
phosphorylation of PDE3A2 at S312 in the presence of IBMX (PDE3A2; 100 μM IBMX before isoproterenol for 90 sec): readily phosphorylated at S312
phosphorylation of PDE3A2 at S312 (PDE3A2; [1]): little phosphorylation of PDE3A2
phosphorylation of PDE3A2 at S428 (PDE3A2; [1]): little phosphorylation of PDE3A2
elution of PDE3 activity and protein on Superose 6 gel filtration, PDE3A1-transfected cells (PDE3A1): pronounced shift of activity and protein from low- to high-molecular-weight peaks
number of proteins co-immunoprecipitated with PDE3A1 (PDE3A1; isoelectric focusing and SDS-PAGE): increased the number of proteins that co-immunoprecipitated with PDE3A1
